Experimental data from patent publication US9101133B2, “Phenyl-substituted bicyclooctane-1,3-dione-derivatives” (BAYER INTELLECTUAL PROPERTY GMBH, priority 2010, dated 2015).

Experiments:
Type in all cases: in vivo
[1] = system: monocotylidonous and dicotylidonous weed and crop plants; test: Herbicidal pre-emergence action; details: 320 g/ha, visual assessment after three weeks, 100% = plants have died; for herbicidal effect in percent, ALOMY: ALOMY = Alopecurus myosuroides; for herbicidal effect in percent, AVEFA: AVEFA = Avena fatua; for herbicidal effect in percent, ECHCG: ECHCG = Echinochloa crus-galli; for herbicidal effect in percent, LOLMU: LOLMU = Lolium multiflorum; for herbicidal effect in percent, SETVI: SETVI = Setaria viridis
From the text: 1. Herbicidal Pre-Emergence Action
• Seeds of monocotylidonous and dicotylidonous weed and crop plants are placed in sandy loam in wood fibre pots and covered with soil. The test compounds, formulated in the form of wettable powders (WP), are then, as an aqueous suspension with a water application rate of 600 l/ha (converted), with 0.2% of wetting agent added, applied to the surface of the covering soil in different amounts. • After the treatment, the pots are placed in a greenhouse and kept under good growth conditions for the test plants. The visual assessment of the emergence damage on the test plants is carried out after a trial period of three weeks by comparison with the untreated controls (herbicidal effect in percent: 100% effect=the plants have died, 0% effect=like control plants).

ECHCG = test: Herbicidal post-emergence action; details: 80 g/ha, visual assessment after about three weeks, 100% = plants have died
Method: (§1) 2. Herbicidal Post-Emergence Action
(§2) • Seeds of monocotylidonous and dicotylidonous weed and crop plants are placed in sandy loam in wood fibre pots, covered with soil and cultivated in a greenhouse under good growth conditions. Two to three weeks after sowing, the test plants are treated at the one-leaf stage. The test compounds, formulated as wettable powders (WP), are then with a water application rate of 600 l/ha (converted), with 0.2% of wetting agent added, sprayed onto the green parts of the plants in different amounts. After the test plants have been kept in the greenhouse under optimum growth conditions for about three weeks, the effect of the preparations is assessed visually in comparison to untreated controls (herbicidal effect in percent: 100% effect=the plants have died, 0% effect=like control plants). Post-Emergence, 80 g/ha

SETVI = test: Herbicidal post-emergence action; details: visual assessment after about three weeks, 100% = plants have died; for herbicidal effect in percent, SETVI: 80 g/ha
Method: as §1, §2

AVEFA = test: Herbicidal post-emergence action; details: 80 g/ha, visual assessment after about three weeks, 100% = plants have died
Method: as §1, §2

ALOMY = test: Herbicidal post-emergence action; details: 80 g/ha, visual assessment after about three weeks, 100% = plants have died
Method: as §1, §2

LOLMU = test: Herbicidal post-emergence action; details: 80 g/ha, visual assessment after about three weeks, 100% = plants have died
Method: as §1, §2

| SMILES | herbicidal effect in percent, ALOMY [1] [%] | herbicidal effect in percent, AVEFA [1] [%] | herbicidal effect in percent, ECHCG [1] [%] | herbicidal effect in percent, LOLMU [1] [%] | herbicidal effect in percent, SETVI [1] [%] | herbicidal effect in percent, ECHCG (ECHCG) [%] | herbicidal effect in percent, SETVI (SETVI) [%] | herbicidal effect in percent, AVEFA (AVEFA) [%] | herbicidal effect in percent, ALOMY (ALOMY) [%] | herbicidal effect in percent, LOLMU (LOLMU) [%] | pest or weed control at 80 g/ha (SETVI; 504 h, read-out: herbicidal effect in percent, SETVI) [%] | herbicidal effect in percent, VIOTR ([1]; VIOTR = Viola tricolor) [%] |
| --- | --- | --- | --- | --- | --- | --- | --- | --- | --- | --- | --- | --- |
| CCc1cc(C)cc(CC)c1C1=C(OC(=O)C(C)(C)C)C2CC(C(OC)OC)CC2C1=O (mixture of isomers) [I-b-5] | 100 | 100 | 100 | 100 | 90 | 100 | 100 | 100 | 100 | 100 | – | – |
| Cc1cc(C)c(C2C(=O)C3CC(C4OCCO4)CC3C2=O)c(C)c1 (mixture of isomers) [I-a-30] | – | – | – | – | – | 90 | 90 | – | – | 90 | – | – |
| CCc1cc(C)cc(CC)c1C1C(=O)C2CC(C(C)O)CC2C1=O (mixture of isomers) [I-a-41] | – | – | – | – | – | 100 | 100 | 100 | 100 | 100 | – | – |
| CCc1cc(C)cc(CC)c1C1C(=O)C2CC(C(=O)OC)CC2C1=O (stereo not drawn) [I-a-9] | 100 | 80 | 100 | 100 | 90 | 100 | 100 | 90 | 100 | 100 | – | – |
| CCc1cc(C)cc(CC)c1C1C(=O)C2CC(OC)CC2C1=O (stereo not drawn) [I-a-22] | 100 | 90 | 100 | 100 | 100 | 100 | 100 | 100 | 100 | 100 | – | – |
| CCc1cc(C)cc(CC)c1C1C(=O)C2CC(CSC)CC2C1=O (mixture of isomers) [I-a-60] | – | – | – | – | – | 100 | 90 | 90 | 90 | 90 | – | – |
| CCc1cc(C)cc(CC)c1C1=C(OC(=O)OC(C)C)C2CC(C=NOC)CC2C1=O (mixture of isomers) [I-c-14] | – | – | – | – | – | 100 | 100 | 100 | 100 | 100 | – | – |
| CCc1cc(C)cc(CC)c1C1C(=O)C2CC(C(C)=O)CC2C1=O (mixture of isomers) [I-a-33] | – | – | – | – | – | 100 | 90 | 100 | 100 | 100 | – | – |
| Cc1cc(C)c(C2C(=O)C3CC(C=NOC(C)C)CC3C2=O)c(C)c1 (mixture of isomers) [I-a-31] | – | – | – | – | – | 90 | 100 | 80 | 90 | 90 | – | – |
| CCOC(=O)OC1=C(c2c(CC)cc(C)cc2CC)C(=O)C2CC(C(C)=NOC)CC12 (mixture of isomers) [I-c-18] | – | – | – | – | – | 90 | – | 80 | 100 | 100 | – | – |
| CCc1cc(C)cc(CC)c1C1C(=O)C2CC(CCC(C)=O)CC2C1=O (stereo not drawn) [I-a-39, 2-(2,6-diethyl-4-methylphenyl)-5-(3-oxobutyl)-tetrahydropentalene-1,3-dione] | – | – | – | – | – | 100 | – | – | 100 | 100 | 100 | – |
| CCc1cc(C)cc(CC)c1C1=C(OC(=O)C(C)(C)C)C2CC(C3OCCCO3)CC2C1=O (mixture of isomers) [I-b-3] | 100 | 90 | 100 | 100 | 100 | 100 | – | – | 100 | 100 | – | 90 |
